{
  "source": "patent US20090137664A1",
  "about": "“SAURURUS CERNUUS COMPOUNDS THAT INHIBIT CELLULAR RESPONSES TO HYPOXIA” (priority 2003, published 2009)",
  "key": {"OVCAR-3": {"tested_on": "OVCAR-3", "assay": "NCI in vitro cell line screen (SRB), Ovarian Cancer OVCAR-3", "format": "cell-based", "method": "(§1) For exemplary purposes, an embodiment of the present invention was tested for activity with respect to certain cancer cell lines. The following Tables show results from in vitro 60-cell line antitumor testing from the US National Cancer Institute Developmental Therapeutics Program (NCI-DTP) on compound 2. The testing was in connection with the NCI's In Vitro Cell Line Screening Project (IVCLSP). Detailed information regarding the experiments and their interpretation is available from the NCI."}, "[1]": {"molecular_target": "T1, recombinant VEGF protein standard (Homo sapiens, UniProt P15692)", "T1 construct": "purchased R & D Systems", "T1 sequence (P15692 27-191 isoform P15692-4)": "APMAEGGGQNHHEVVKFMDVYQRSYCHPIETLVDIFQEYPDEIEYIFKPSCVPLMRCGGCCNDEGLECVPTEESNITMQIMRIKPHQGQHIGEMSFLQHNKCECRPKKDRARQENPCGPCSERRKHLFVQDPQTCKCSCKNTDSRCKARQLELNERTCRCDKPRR", "assay": "interference with the VEGF ELISA using VEGF standard", "method": "The effects of compounds 1 and 2 on hypoxic induction of secreted VEGF protein are examined in T47D cells. Exponentially grown T47D cells are plated at the density of 30,000 cells/well into 96-well plates. Compound treatment and hypoxic exposure are the same as described. Following incubation, the concentration of secreted VEGF protein in the conditioned media is determined by ELISA (R & D Systems) and the data normalized by the number of viable cells. Results shown in FIG. 4 are averages from a representative experiment performed in quadruplicate, the bars represent standard error. An asterisk (*) indicates the level of significance (p<0.01) relative to the hypoxic control, two asterisks (**) (p<0.0001), and no asterisk indicates no statistical difference (ANOVA and Fisher's PLSD post hoc test).\nAs discussed earlier, one important HIF-1 target gene is VEGF, a key factor for tumor angiogenesis. Compounds that can inhibit both HIF-1 activation and the production of secreted VEGF protein represent potential efficacious chemotherapeutic agents that inhibit both tumor survival and hypoxia induced angiogenesis. […] Following incubation, the concentration of secreted VEGF protein in the conditioned media is determined by ELISA (R & D Systems) and the data normalized by the number of viable cells. […] The level of significance (p<0.01) is determined by ANOVA and Fisher's PLSD post hoc test. […]"}, "pGL3 Control": {"tested_on": "pGL3 Control", "assay": "luciferase expression from control plasmid pGL3 Control", "format": "cell-based, human", "method": "The chemical structures of active compounds 1 and 2 are shown above. Compound 2 is the known compound manassantin B and 1 is a novel compound of the present invention. […] Similar results are obtained from separate experiments. The IC50 is 3 nM for 2 and 30 nM for 1. Complete inhibition is observed at 10 nM for 2 and 100 nM for 1."}, "TK-10": {"tested_on": "TK-10", "assay": "NCI in vitro cell line screen (SRB), Renal Cancer TK-10", "format": "cell-based", "method": "as §1"}, "[2]": {"conditions": "Homo sapiens, read-out: LC50 (the source's name)"}},
  "data": [
    {"compound": "COc1ccc([C@@H](O)[C@@H](C)Oc2ccc([C@H]3O[C@H](c4ccc(O[C@H](C)[C@H](O)c5ccc6c(c5)OCO6)c(OC)c4)[C@H](C)[C@H]3C)cc2OC)cc1OC", "note": "[Compound 2, manassantin B]", "values": [
      {"measurement": "TGI", "setting": "OVCAR-3", "result": "4.32E−6", "unit": "Molar"},
      {"measurement": "GI50", "setting": "OVCAR-3; Homo sapiens", "result": 0.627, "unit": "µM"},
      {"measurement": "CC50", "setting": "OVCAR-3; [2]", "result": "> 100", "unit": "µM"},
      {"measurement": "Mean Optical Densities", "setting": "OVCAR-3; Log10 Concentration −4.0 Molar", "result": 0.367},
      {"measurement": "Percent Growth", "setting": "OVCAR-3; Log10 Concentration −4.0 Molar", "result": "−36", "unit": "%"},
      {"measurement": "Mean Optical Densities", "setting": "OVCAR-3; Log10 Concentration −5.0 Molar", "result": 0.465},
      {"measurement": "Percent Growth", "setting": "OVCAR-3; Log10 Concentration −5.0 Molar", "result": "−19", "unit": "%"},
      {"measurement": "Mean Optical Densities", "setting": "OVCAR-3; Log10 Concentration −6.0 Molar", "result": 0.616},
      {"measurement": "Percent Growth", "setting": "OVCAR-3; Log10 Concentration −6.0 Molar", "result": 33, "unit": "%"},
      {"measurement": "Mean Optical Densities", "setting": "OVCAR-3; Log10 Concentration −7.0 Molar", "result": 0.722},
      {"measurement": "Percent Growth", "setting": "OVCAR-3; Log10 Concentration −7.0 Molar", "result": 117, "unit": "%"},
      {"measurement": "Mean Optical Densities", "setting": "OVCAR-3; Log10 Concentration −8.0 Molar", "result": 0.679},
      {"measurement": "Percent Growth", "setting": "OVCAR-3; Log10 Concentration −8.0 Molar", "result": 83, "unit": "%"},
      {"measurement": "interference with the ELISA assay", "setting": "[1]", "result": "neither compound interferes"},
      {"measurement": "luciferase expression from the pGL3-Control plasmid", "setting": "pGL3 Control; 1,10-phenanthroline experiment (FIG. 5)", "result": "Neither compound exerts significant effect"},
      {"measurement": "luciferase expression from the control plasmid (pGL3 Control)", "setting": "pGL3 Control; hypoxia experiment (FIG. 3)", "result": "No statistically significant difference"},
      {"measurement": "TGI", "setting": "TK-10", "result": ">1.00E−4", "unit": "Molar"},
      {"measurement": "GI50", "setting": "TK-10; Homo sapiens", "result": 4.15, "unit": "µM"},
      {"measurement": "CC50", "setting": "TK-10; [2]", "result": "> 100", "unit": "µM"},
      {"measurement": "Mean Optical Densities", "setting": "TK-10; Log10 Concentration −4.0 Molar", "result": 1.117},
      {"measurement": "Percent Growth", "setting": "TK-10; Log10 Concentration −4.0 Molar", "result": 16, "unit": "%"},
      {"measurement": "Mean Optical Densities", "setting": "TK-10; Log10 Concentration −5.0 Molar", "result": 1.163},
      {"measurement": "Percent Growth", "setting": "TK-10; Log10 Concentration −5.0 Molar", "result": 22, "unit": "%"},
      {"measurement": "Mean Optical Densities", "setting": "TK-10; Log10 Concentration −6.0 Molar", "result": 1.674},
      {"measurement": "Percent Growth", "setting": "TK-10; Log10 Concentration −6.0 Molar", "result": 95, "unit": "%"},
      {"measurement": "Mean Optical Densities", "setting": "TK-10; Log10 Concentration −7.0 Molar", "result": 1.684},
      {"measurement": "Percent Growth", "setting": "TK-10; Log10 Concentration −7.0 Molar", "result": 97, "unit": "%"},
      {"measurement": "Mean Optical Densities", "setting": "TK-10; Log10 Concentration −8.0 Molar", "result": 1.707},
      {"measurement": "Percent Growth", "setting": "TK-10; Log10 Concentration −8.0 Molar", "result": 100, "unit": "%"}
    ]}
  ]
}
